The values below come from patent publication US6638951B1, “Benzamide derivatives and drugs containing the same” (Hokuriku Seiyaku Co., Ltd., priority 1999, dated 2003).

Molecules are shown by their SMILES. Counter-ions that a name gives are not always drawn.

The subject of one data set is male ferrets. The data set can be described thus: Emetic action in ferrets. The format is in vivo. Particulars: 16 hours fasting, 10 mg/kg p.o., during 2 hours after administration, 8 tested ferrets per compound. The method, then: The tested compound of Example 5 was used as a methanesulfonic acid salt, and the following compounds disclosed in Japanese Patent Unexamined Publication No. 5-262724/1993 were used as reference compounds:
Each test compound dissolved in 10% aqueous dimethyl sulfoxide solution was administered to male ferrets, weighing 0.9 to 1.3 kg, and 16 hours fasting, and then the incidence of vomiting was observed during 2 hours after the administration.
For `CCCCCCOC(=O)CN1CCC(NC(=O)c2cc(Cl)c(N)cc2OC)CC1` [Example 7, n-Hexyl 4-(4-amino-5-chloro-2-methoxybenzamido)-1-piperidineacetate], the “Number of ferrets showing vomiting” value was determined as 1.
Same read-out and setting: to `CCCOC(=O)CN1CCC(NC(=O)c2cc(Cl)c(N)cc2OC)CC1` [Example 2, n-Propyl 4-(4-amino-5-chloro-2-methoxybenzamido)-1-piperidineacetate] belongs 2; to `CCCCCOC(=O)CN1CCC(NC(=O)c2cc(Cl)c(N)cc2OC)CC1` [Example 5, n-Pentyl 4-(4-amino-5-chloro-2-methoxybenzamido)-1-piperidineacetate], 0; to `CCCCOC(=O)CN1CCC(NC(=O)c2cc(Cl)c(N)cc2OC)CC1` [Example 1, n-Butyl 4-(4-amino-5-chloro-2-methoxybenzamido)-1-piperidineacetate], 0.
Regarding `CCOC(=O)CN1CCC(NC(=O)c2cc(Cl)c(N)cc2OC)CC1.Cl` [Reference compound 2, Ethyl 4-(4-amino-5-chloro-2-methoxybenzamido)-1-piperidine-acetate hydrochloride, reference compound], the “Number of ferrets showing vomiting” value came to 8.
With `COc1cc(N)c(Cl)cc1C(=O)NC1CCN(CC(=O)O)CC1.Cl` [Reference compound 1, 4-(4-amino-5-chloro-2-methoxybenzamido)-1-piperidineacetic acid hydrochloride, reference compound], the “Number of ferrets showing vomiting” value was 0.
In the case of `COc1cc(N)c(Cl)cc1C(=O)NC1CCN(CC(=O)OCC(C)C)CC1` [Example 4, Isobutyl 4-(4-amino-5-chloro-2-methoxybenzamido)-1-piperidineacetate], the “Number of ferrets showing vomiting” value was 1.

System in a further data set: not given
Test: not given
Details: not given
As for `CCCCCCOC(=O)CN1CCC(NC(=O)c2cc(Cl)c(N)cc2OC)CC1` (as salt: hydrochloride) [Example 7, n-Hexyl 4-(4-amino-5-chloro-2-methoxybenzamido)-1-piperidineacetate], the melting point lay within 133 to 137 °C.
As to `COc1cc(N)c(Cl)cc1C(=O)NC1CCN(CC(=O)OCC(C)C)CC1` (as salt: methanesulfonate) [Example 4, Isobutyl 4-(4-amino-5-chloro-2-methoxybenzamido)-1-piperidineacetate], the melting point lay within 207 to 208 °C.
`COc1cc(N)c(Cl)cc1C(=O)NC1CCN(CC(=O)OC(C)C)CC1` (as salt: hydrochloride) [Example 3, Isopropyl 4-(4-amino-5-chloro-2-methoxybenzamido)-1-piperidineacetate] yielded a melting point of 125 to 130 °C.
Same read-out and setting: under `CCCOC(=O)CN1CCC(NC(=O)c2cc(Cl)c(N)cc2OC)CC1` (as salt: methanesulfonate) [Example 2, n-Propyl 4-(4-amino-5-chloro-2-methoxybenzamido)-1-piperidineacetate] stands 209 to 210 °C.
`COc1cc(N)c(Cl)cc1C(=O)NC1CCN(CC(=O)OCCC(C)C)CC1` (as salt: methanesulfonate) [Example 6, Isopentyl 4-(4-amino-5-chloro-2-methoxybenzamido)-1-piperidineacetate] showed a melting point of 199.5 to 201 °C.
Compound `CCCCOC(=O)CN1CCC(NC(=O)c2cc(Cl)c(N)cc2OC)CC1` (as salt: methanesulfonate) [Example 1, n-Butyl 4-(4-amino-5-chloro-2-methoxybenzamido)-1-piperidineacetate] displayed a melting point of 209 to 211.5 °C.
Still for that read-out and setting: under `CCCCOC(=O)CN1CCC(NC(=O)c2cc(Cl)c(N)cc2OC)CC1` (as salt: methanesulfonate) [Example 9, n-Butyl 4-(4-amino-5-chloro-2-methoxybenzamido)-1-piperidineacetate] stands 111 to 112 °C; under `CCCCOC(=O)CN1CCC(NC(=O)c2cc(Cl)c(N)cc2OC)CC1` (as salt: hydrochloride) [Example 8, n-Butyl 4-(4-amino-5-chloro-2-methoxybenzamido)-1-piperidineacetate], 141 to 144 °C; under `CCCCCOC(=O)CN1CCC(NC(=O)c2cc(Cl)c(N)cc2OC)CC1` (as salt: methanesulfonate) [Example 5, n-Pentyl 4-(4-amino-5-chloro-2-methoxybenzamido)-1-piperidineacetate], 202.5 to 203 °C.
